Where two headings read alike, the source gives them in different places.
What was measured:
Botrytis cinerea [1] = assay: Activity against the gray mold pathogen Botrytis cinerea in the microtiter test; assay type: cell-based; settings: microtiter plate, day 7
Phytophthora infestans = assay type: cell-based; settings: microtiter plate, 405 nm, day 7
Puccinia recondite = assay: Curative activity against brown rust of wheat (greenhouse); assay type: in vivo; settings: wheat seedlings, sprayed 1 day after inoculation, rated after 7 days
Description: (§1) The active compounds were separately or jointly prepared as a stock solution comprising 25 mg of active compound which was made up to 10 ml using a mixture of acetone and/or DMSO and the emulsifier Uniperol® EL (wetting agent having emulsifying and dispersing action based on ethoxylated alkylphenols) in a volume ratio of solvent/emulsifier of 99 to 1. The mixture was then made up with water to 100 ml. This stock solution was diluted with the solvent/emulsifier/water mixture described to the concentration of active compounds stated below.
(§2) The visually determined percentages of infected leaf areas were converted into efficacies in % of the untreated control:
(§3) The efficacy (E) is calculated as follows using Abbot's formula: […]
(§4) α corresponds to the fungal infection of the treated plants in % and β corresponds to the fungal infection of the untreated (control) plants in %
(§5) An efficacy of 0 means that the infection level of the treated plants corresponds to that of the untreated control plants; an efficacy of 100 means that the treated plants were not infected.
(§6) The expected efficacies of combinations of active compounds were determined using Colby's formula (Colby, S. R. “Calculating synergistic and antagonistic responses of herbicide combinations”, Weeds, 15, 20-22, 1967) and compared with the observed efficacies.
(§7) E=x+y−x·y/100 • E expected efficacy, expressed in % of the untreated control, when using the mixture of the active compounds A and B at the concentrations a and b • x efficacy, expressed in % of the untreated control, when using the active compound A at the concentration a • y efficacy, expressed in % of the untreated control, when using the active compound B at the concentration b
Leaves of wheat seedlings of the cultivar “Kanzler” cultivated in pots were inoculated with a spore suspension of brown rust (Puccinia recondite). The pots were then placed in a chamber with high atmospheric humidity (90 to 95%) and at 20 to 22° C. for 24 hours. During this time, the spores germinated and the germ tubes penetrated into leaf tissue. The next day, the infected plants were sprayed to runoff point with the solution of active compound described above having the active compound concentration stated below. After the spray coating had dried on, the test plants were cultivated in a greenhouse at temperatures between 20 and 22° C. and at 65 to 70% relative atmospheric humidity for 7 days. The extent of the rust fungus development on the leaves was then determined.

Botrytis cinerea [2] = assay: Activity against Botrytis cinerea on bell peppers (greenhouse, protective spray); assay type: in vivo; settings: bell pepper seedlings, sprayed 1 day before inoculation, rated after 5 days
Description: as §1, §2, §3, §4, §5, §6, §7
Bell pepper seedlings of the cultivar “Neusiedler Ideal Elite” were, after 2-3 leaves were well developed, sprayed to runoff point with an aqueous suspension in the active compound concentration stated below. […] After 5 days, the extent of the fungal infection on the leaves could be determined visually in %.

`Fc1ccc([C@]2(Cn3cncn3)O[C@H]2c2ccccc2Cl)cc1` (racemic) [epoxiconazole, (2RS, 3SR)-1-[3-(2-chlorophenyl)-2,3-epoxy-2-(4-fluorophenyl)propyl]-1H-1,2,4-triazole] gave an Observed activity (Botrytis cinerea [1]; 1 ppm, 405 nm) of 2%, an Observed activity (Phytophthora infestans; 32 ppm) of 9% and an Observed activity (Phytophthora infestans; 125 ppm) of 31%.
In the case of `COCC(=O)N(c1c(C)cccc1C)C(C)C(=O)OC` (racemic) [metalaxyl, methyl N-(methoxyacetyl)-N-(2,6-xylyl)-DL-alaninate], the Observed activity (Puccinia recondite; 16 ppm) was 0%.
`COC(=O)NCc1cc(/C(C)=N/OCc2cccc(C)c2)ccc1Cl` [I-B] was tested, and the Observed activity (Botrytis cinerea [1]; 0.25 ppm, 405 nm) was 2%, the Observed activity (Botrytis cinerea [1]; 1 ppm, 405 nm) was 40% and the Observed activity (Botrytis cinerea [1]; 4 ppm, 405 nm) was 67%. The Observed activity (Puccinia recondite; 16 ppm) was 6%, the Observed activity (Phytophthora infestans; 0.25 ppm) was 4% and the Observed activity (Phytophthora infestans; 4 ppm) was 5%. The Observed activity (Phytophthora infestans; 8 ppm) was 27%, the Observed activity (Phytophthora infestans; 32 ppm) was 35% and the Observed activity (Phytophthora infestans; 125 ppm) was 57%. For the same compound, the Observed activity (Botrytis cinerea [2]; 16 ppm) was 10% and the Observed activity (Botrytis cinerea [2]; 63 ppm) was 20%.
In the case of `O=C(Nc1ccccc1-c1ccc(Cl)cc1)c1cccnc1Cl` [boscalid, 2-chloro-N-(4′-chlorbiphenyl-2-yl)nicotinamide], the Observed activity (Puccinia recondite; 16 ppm) was 0%.
In the case of `Cc1ccc(-c2c(Cl)nc(C#N)n2S(=O)(=O)N(C)C)cc1` [cyazofamid, 4-chloro-2-cyano-N,N-dimethyl-5-(4-methylphenyl)-1H-imidazole-1-sulfonamide], the Observed activity (Botrytis cinerea [1]; 1 ppm, 405 nm) was 0% and the Observed activity (Botrytis cinerea [1]; concentration not printed (second line for cyazofamid)) was 0%.
Work on `COc1ccc(C(=CC(=O)N2CCOCC2)c2ccc(Cl)cc2)cc1OC` [dimethomorph, 3-(4-chlorophenyl)-3-(3,4-dimethoxyphenyl)-1-morpholin-4-ylpropenone] yielded an Observed activity (Puccinia recondite; 2 ppm) of 0% and an Observed activity (Puccinia recondite; 8 ppm) of 0%.
In the case of `N#Cc1sc2c(=O)c3ccccc3c(=O)c=2sc1C#N` [dithianon, 5,10-dioxo-5,10-dihydronaphtho[2,3-b][1,4]dithiin-2,3-dicarbonitrile], the Observed activity (Botrytis cinerea [2]; 63 ppm) was 10%.
Work on `O=[N+]([O-])c1cc(C(F)(F)F)c(Cl)c([N+](=O)[O-])c1Nc1ncc(C(F)(F)F)cc1Cl` [fluazinam, 3-chloro-N-[3-chloro-2,6-dinitro-4-(trifluoromethyl)phenyl]-5-(trifluoromethyl)-2-pyridinamine] yielded an Observed activity (Phytophthora infestans; 1 ppm) of 0%.
For `CO/N=C(/C(=O)OC)c1ccccc1COc1ccccc1C` [kresoxim-methyl, methyl(E)-methoxyimino[α-(o-tolyloxy)-o-tolyl]acetate], the Observed activity (Puccinia recondite; 4 ppm) was 0%, the Observed activity (Puccinia recondite; 63 ppm) was 18% and the Observed activity (Phytophthora infestans; 1 ppm) was 36%.
`OC(Cc1ccccc1Cl)(Cn1nc[nH]c1=S)C1(Cl)CC1` (centres unmarked) [prothioconazole, 2-[2-(1-chlorocyclopropyl)-3-(2-chlorophenyl)-2-hydroxypropyl]-2,4-dihydro[1,2,4]triazol-3-thione] gave an Observed activity (Phytophthora infestans; 8 ppm) of 0% and an Observed activity (Phytophthora infestans; 32 ppm) of 46%.
`COC(=O)N(OC)c1ccccc1COc1ccn(-c2ccc(Cl)cc2)n1` [pyraclostrobin, methyl N-{2-[1-(4-chlorophenyl)-1H-pyrazol-3-yloxymethyl]phenyl}(N-methoxy)carbamate] showed an Observed activity (Botrytis cinerea [1]; 0.25 ppm, 405 nm) of 20%.
“manganese-ethylenebis(dithiocarbamate) zinc complex [mancozeb]” gave an Observed activity (Botrytis cinerea [1]; 4 ppm, 405 nm) of 9%.
